How the values were obtained:
[1] = tested on: DLD1 NRF2-WT; conditions: 72 h; CellTiter-Glo viability
How it was run: (§1)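 DLD1 colorectal cancer cells, an isogenic pair either NRF2 wild-type or carrying a CRISPR gain-of-function, were cultured in DMEM with 10% FBS and treated in 384-well plates with library compounds at 5 concentrations across a 10,000-fold range. CellTiter-Glo viability was read on a Pherastar FS reader after 72 h and normalised to vehicle wells and 100-μM positive-control wells. Four-parameter logistic dose-response fits were applied. EC50 and drug sensitivity score, a normalised area under the curve, were taken from these fits.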

[2] = tested on: DLD1 NRF2-GOF; conditions: 72 h; CellTiter-Glo viability
How it was run: as §1

[3] = tested on: DLD1 NRF2-WT; assay: TC50 cytotoxicity; higher = less toxic; conditions: 72 h; CellTox Green cytotoxicity
How it was run: (§2)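 Isogenic DLD1 colorectal cancer cells, either NRF2 wild-type or CRISPR gain-of-function, were grown in DMEM with 10% FBS. They were exposed in 384-well plates to library compounds at 5 concentrations spanning a 10,000-fold range. After 72 h, cytotoxicity was read by CellTox Green on a Pherastar FS reader and normalised to vehicle wells and 100-μM positive-control wells. TC50 and drug sensitivity score (a normalised area under the curve) came from logistic dose-response fits.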

[4] = tested on: DLD1 NRF2-GOF; assay: TC50 cytotoxicity; higher = less toxic; conditions: 72 h; CellTox Green cytotoxicity
How it was run: as §2

[5] = tested on: DLD1 NRF2-WT; assay: drug sensitivity score (DSS) cytotoxicity (DSS score); higher = more toxic; extreme values may be limits of the assay; conditions: 72 h; CellTox Green cytotoxicity
How it was run: as §2

[6] = tested on: DLD1 NRF2-GOF; assay: as above; conditions: 72 h; CellTox Green cytotoxicity
How it was run: as §2

[7] = tested on: DLD1 NRF2-WT; assay: drug sensitivity score (DSS) viability (DSS score); higher = more sensitive; extreme values may be limits of the assay; conditions: 72 h; CellTiter-Glo viability
How it was run: as §1

[8] = tested on: DLD1 NRF2-GOF; assay: as above; conditions: 72 h; CellTiter-Glo viability
How it was run: as §1

| Compound | EC50 viability [1] | EC50 viability [2] | TC50 cytotoxicity [3] | TC50 cytotoxicity [4] | drug sensitivity score [5] | drug sensitivity score [6] | drug sensitivity score [7] | drug sensitivity score [8] |
| --- | --- | --- | --- | --- | --- | --- | --- | --- |
| COc1cccc2c1C(=O)c1c(O)c3c(c(O)c1C2=O)C[C@@](O)(C(=O)CO)C[C@@H]3O[C@H]1C[C@H](N)[C@H](O)[C@H](C)O1 [Doxorubicin] | 168 nM | 138 nM | > 1 µM | > 1 µM | 0 | 0 | 8.1 | 9.2 |
| Cc1ccc(NS(=O)(=O)c2cccc(C#N)c2)c2[nH]cc(C#N)c12 [E7820] | 531 nM | 202 nM | > 50 µM | > 50 µM | 0 | 0 | 15.3 | 22.9 |
| Cc1cc(C)c(CNC(=O)c2cc(-c3ccc(CN4CCOCC4)cc3)cc3c2cnn3C2CCCC2)c(=O)[nH]1 [EPZ-5687] | > 10000 nM | 1680 nM | > 10 µM | > 10 µM | 0 | 0 | 3.3 | 3.2 |
| COC(=O)N[C@@H](C)CNc1nccc(-c2cn(C(C)C)nc2-c2cc(Cl)cc(NS(C)(=O)=O)c2F)n1 [Encorafenib] | 412 nM | 387 nM | > 1 µM | > 1 µM | 0 | 0 | 1.1 | 1.3 |
| C[C@@H]1CN(C(=O)c2ccc(NC(=O)c3cc(O[C@H](C)c4c(Cl)ccc(F)c4Cl)c(N)nn3)cc2)C[C@H](C)N1 [Ensartinib] | > 1000 nM | > 1000 nM | > 1 µM | > 1 µM | 0.3 | 0.2 | 0 | 0.1 |
| Nc1ccccc1NC(=O)c1ccc(CNC(=O)OCc2cccnc2)cc1 [Entinostat] | > 10000 nM | > 10000 nM | > 10 µM | > 10 µM | 0 | 0 | 0 | 0 |
| c1cn2cc(-c3ccc4cn[nH]c4c3)nc(Nc3ccc(N4CCOCC4)cc3)c2n1 [Entospletinib] | > 5000 nM | > 5000 nM | > 5 µM | > 5 µM | 0 | 0 | 0 | 0 |
| Cn1cc(C2=C(c3cn(C4CCN(Cc5ccccn5)CC4)c4ccccc34)C(=O)NC2=O)c2ccccc21 [Enzastaurin] | > 10000 nM | > 10000 nM | > 10 µM | > 10 µM | 0 | 0 | 0 | 0 |
| CCOc1ccccc1-n1c(C(C)N2CCN(C(=O)COc3ccc(Cl)cc3)CC2)nc2ccccc2c1=O (stereo not drawn) [Erastin] | > 10000 nM | > 10000 nM | > 10 µM | > 10 µM | 0 | 0 | 0 | 0 |
| C=C1C[C@@H]2[C@H](CC[C@]3(C)C(=O)CC[C@@H]23)[C@@]2(C)C=CC(=O)C=C12 [Exemestane] | > 10000 nM | > 10000 nM | > 10 µM | > 10 µM | 0 | 0 | 0.1 | 0.9 |

Second part, led by results:

| EC50 viability [1] | EC50 viability [2] | Compound | TC50 cytotoxicity [3] | TC50 cytotoxicity [4] | drug sensitivity score [5] | drug sensitivity score [6] | drug sensitivity score [7] | drug sensitivity score [8] |
| --- | --- | --- | --- | --- | --- | --- | --- | --- |
| > 10000 nM | > 10000 nM | CNC(=O)c1ccc(N2C(=S)N(c3ccc(C#N)c(C(F)(F)F)c3)C(=O)C2(C)C)cc1F [Enzalutamide] | > 10 µM | > 10 µM | 0 | 0 | 0.5 | 0.1 |
| 1670 nM | 1750 nM | NS(=O)(=O)NCCNc1nonc1/C(=N/O)Nc1ccc(F)c(Br)c1 [Epacadostat] | > 10 µM | > 10 µM | 0 | 0 | 3.8 | 3.2 |
| 42.1 nM | 133 nM | COc1cc(OC)cc(N(CCNC(C)C)c2ccc3ncc(-c4cnn(C)c4)nc3c2)c1 [Erdafitinib] | > 1 µM | > 1 µM | 0 | 0 | 5.9 | 6 |
| 321 nM | 3540 nM | C#Cc1cccc(Nc2ncnc3cc(OCCOC)c(OCCOC)cc23)c1 [Erlotinib] | > 10 µM | > 10 µM | 0 | 0 | 6.9 | 1.3 |
| 250 nM | 626 nM | CCn1c(=O)c(-c2ccc(Cl)cc2Cl)cc2cnc(Nc3ccc(N4CCNCC4)c(F)c3)nc21 [FRAX486] | > 5 µM | > 5 µM | 0 | 0 | 9.8 | 7.1 |
| 1410 nM | 1890 nM | Cc1cnc(Nc2ccc(OCCN3CCCC3)cc2)nc1Nc1cccc(S(=O)(=O)NC(C)(C)C)c1 [Fedratinib] | 2.4 µM | 2.5 µM | 3.8 | 4.3 | 9.6 | 8.2 |
| 6.4 nM | 4.6 nM | CON(C)C(=O)N1N=C(c2cc(F)ccc2F)S[C@@]1(CCCN)c1ccccc1 [Filanesib] | > 1 µM | > 1 µM | 5.3 | 6.2 | 21.5 | 18.6 |
| 2090 nM | 790 nM | O=C(Nc1nc2cccc(-c3ccc(CN4CCS(=O)(=O)CC4)cc3)n2n1)C1CC1 [Filgotinib] | > 10 µM | > 10 µM | 0 | 0.8 | 6.7 | 11.7 |
| 3220 nM | 2580 nM | CCCCCCCCc1ccc(CCC(N)(CO)CO)cc1 [Fingolimod] | 2.42 µM | 2.73 µM | 5.6 | 6.4 | 5.5 | 6.7 |
| 255 nM | 258 nM | O=c1[nH]c(=O)n([C@H]2C[C@H](O)[C@@H](CO)O2)cc1F [Floxuridine] | > 10 µM | > 10 µM | 0 | 0 | 12.2 | 11.8 |
| > 10000 nM | > 10000 nM | Nc1nc(F)nc2c1ncn2[C@@H]1O[C@H](CO)[C@@H](O)[C@@H]1O [Fludarabine] | > 10 µM | > 10 µM | 0 | 0 | 0.1 | 0 |

Reference: the supplement of paper PMC7600603
